Experimental data published in patent US20230159537A1, “COMPOUND, PREPARATION METHOD THEREOF, AND USE THEREOF IN PREPARATION OF ANTI-CANCER DRUG” (TIANJIN JIKUN MEDICAL TECHNOLOGY CO., LTD., priority 2020, published 2023).

Tests used:
FGFR3 = molecular target: T1, FGFR3 (Homo sapiens, UniProt P22607); assay: HTRF enzyme activity test, FGFR3; format: biochemical
T1 construct: made in house; host or cells: Escherichia coli
Method: In the present disclosure, the homogeneous time-resolved fluorescence (HTRF) technology was used to evaluate an inhibitory effect of a compound on the four subtypes FGFR1, FGFR2, FGFR3, and FGFR4. FGFR1, FGFR2, FGFR3, and FGFR4 prokaryotic expression vectors were first constructed; and when the prokaryotic expression vectors were identified as correct, FGFR proteins were expressed and purified on a large scale in an Escherichia coli (E. coli) system, and protein concentrations were determined. Resulting proteins were stored in aliquots. Before an enzyme activity test was started, cisbio HTRF KinEA (62TK0PEB) was used to pre-dilute each component required in an enzyme activity system with an enzyme activity buffer to a required working concentration. A 384-well plate (66PL384025) was prepared, 5 μL of a protein solution, 1 μL of a compound, and 2 μL of a substrate were added to each well, and 2 μL of ATP was finally added to initiate a reaction. Three parallel experiments were set for each concentration. […] The 384-well plate was sealed and incubated at room temperature for about 1 h. […] Finally, the TECAN infinite M1000PRO multi-function microplate reader was used to detect a fluorescence signal, an inhibition rate was calculated, and an IC50 value was fitted with GraphPad Prism 7.0.

Huh-7 = assay: MTT cell proliferation assay, Huh-7; format: cell-based; details: tumor cells with normal FGFR expression (Huh-7, A549 of Table 2)
A549 = assay: cells; details: Homo sapiens, A549, 96 h, read-out: Anti-proliferation IC50 A549

T1 sequence (P22607 23-806): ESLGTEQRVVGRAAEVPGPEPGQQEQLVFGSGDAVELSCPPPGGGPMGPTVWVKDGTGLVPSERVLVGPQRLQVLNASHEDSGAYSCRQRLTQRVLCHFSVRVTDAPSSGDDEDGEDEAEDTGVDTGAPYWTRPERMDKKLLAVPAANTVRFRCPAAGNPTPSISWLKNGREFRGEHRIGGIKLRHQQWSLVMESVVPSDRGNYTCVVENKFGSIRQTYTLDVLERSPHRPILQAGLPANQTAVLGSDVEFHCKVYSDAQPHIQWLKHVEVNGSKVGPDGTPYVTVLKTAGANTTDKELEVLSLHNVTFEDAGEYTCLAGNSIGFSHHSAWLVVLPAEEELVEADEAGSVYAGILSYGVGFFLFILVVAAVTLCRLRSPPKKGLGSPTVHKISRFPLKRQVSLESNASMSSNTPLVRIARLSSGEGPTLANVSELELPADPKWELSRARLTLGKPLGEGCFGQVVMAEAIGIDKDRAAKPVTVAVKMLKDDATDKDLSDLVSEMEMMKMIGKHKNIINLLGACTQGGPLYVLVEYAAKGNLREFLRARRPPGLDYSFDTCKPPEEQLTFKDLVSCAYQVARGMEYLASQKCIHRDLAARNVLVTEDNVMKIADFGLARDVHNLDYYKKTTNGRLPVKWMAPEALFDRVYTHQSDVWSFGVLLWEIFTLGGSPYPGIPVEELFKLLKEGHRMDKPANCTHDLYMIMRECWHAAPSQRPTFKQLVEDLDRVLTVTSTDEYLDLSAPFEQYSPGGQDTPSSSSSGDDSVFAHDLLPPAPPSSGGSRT

| IC50 (FGFR3) | IC50 (A549) | SMILES | inhibitory effect on tumor cells with normal FGFR expression (in words) (Huh-7) |
| --- | --- | --- | --- |
| > 5000 nM |  | C=CC(=O)N1CCN(CCCCCn2nc(-c3cccc(OCc4ccccc4)c3)c3c(N)ncnc32)CC1 [Compound 26] |  |
|  | > 10 µM | COc1cc(OC)cc(-c2nn(CCCCCN3CCN(C(=O)/C=C/C(F)(F)F)CC3)c3ncnc(N)c23)c1 [Compound 36] | no obvious inhibitory effect |
